Species on record: Rattus norvegicus
Experiment: DrugMatrix - Regimen: Daily Repeat
Type: toxicity, organism-based, Sprague-Dawley
Set-up: regimen Daily Repeat, gender Male, age 6-8 weeks
Details: in vivo, po, route oral GAVAGE, vehicle 100 % WATER; for BASOPHIL / EOSINOPHIL / ERYTHROCYTE COUNT / HEMATOCRIT / HEMOGLOBIN / LEUKOCYTE COUNT / LYMPHOCYTE / MEAN CORPUSCULAR HEMOGLOBIN / MEAN CORPUSCULAR HEMOGLOBIN CONCENTRATION / MEAN CORPUSCULAR VOLUME / MONOCYTE / NEUTROPHIL / PLATELET COUNT: tissue Blood; for ALANINE AMINOTRANSFERASE / ALBUMIN / ALKALINE PHOSPHATASE / ASPARTATE AMINOTRANSFERASE / BLOOD UREA NITROGEN / CHLORIDE / CHOLESTEROL / CREATINE PHOSPHOKINASE / CREATININE / GLUCOSE / PHOSPHORUS / POTASSIUM / SODIUM / TOTAL BILIRUBIN / TOTAL PROTEIN: tissue Plasma
[1] = 0 mg/kg, 72 h, dose level Control, time 3 day
[2] = 0 mg/kg, 120 h, dose level Control, time 5 day
[3] = 3 mg/kg, 72 h, dose level Low, time 3 day
[4] = 3 mg/kg, 120 h, dose level Low, time 5 day
[5] = 24 mg/kg, 72 h, dose level High, time 3 day
[6] = 24 mg/kg, 120 h, dose level High, time 5 day

Nc1c2c(nc3ccccc13)CCCC2 [TACRINE]
BASOPHIL [1]: 0% | EOSINOPHIL [1]: 0.5% | ERYTHROCYTE COUNT [1]: 5.8 x10E6/uL | HEMATOCRIT [1]: 35.07% | HEMOGLOBIN [1]: 14.12 G/DL | LEUKOCYTE COUNT [1]: 13.7 x10E3/uL | LYMPHOCYTE [1]: 82.33% | MEAN CORPUSCULAR HEMOGLOBIN [1]: 24.38 pg | MEAN CORPUSCULAR HEMOGLOBIN CONCENTRATION [1]: 40.28 G/DL | MEAN CORPUSCULAR VOLUME [1]: 60.52 fL | MONOCYTE [1]: 2.67% | NEUTROPHIL [1]: 14.5% | PLATELET COUNT [1]: 911.5 x10E3/uL | ALANINE AMINOTRANSFERASE [1]: 36.83 u/L | ALBUMIN [1]: 3.75 G/DL | ALKALINE PHOSPHATASE [1]: 399.83 u/L | ASPARTATE AMINOTRANSFERASE [1]: 66 u/L | BLOOD UREA NITROGEN [1]: 14.67 mg/dL | CHLORIDE [1]: 101.67 MEQ/L | CHOLESTEROL [1]: 66.33 mg/dL | CREATINE PHOSPHOKINASE [1]: 139.5 u/L | CREATININE [1]: 0.92 mg/dL | GLUCOSE [1]: 175 mg/dL | PHOSPHORUS [1]: 11.42 mg/dL | POTASSIUM [1]: 7.03 MEQ/L | SODIUM [1]: 148.5 MEQ/L | TOTAL BILIRUBIN [1]: 1.13 mg/dL | TOTAL PROTEIN [1]: 6.87 G/DL | BASOPHIL [2]: 0% | EOSINOPHIL [2]: 0.2% | ERYTHROCYTE COUNT [2]: 6.02 x10E6/uL | HEMATOCRIT [2]: 36.48% | HEMOGLOBIN [2]: 14.38 G/DL | LEUKOCYTE COUNT [2]: 12.34 x10E3/uL | LYMPHOCYTE [2]: 83% | MEAN CORPUSCULAR HEMOGLOBIN [2]: 23.92 pg | MEAN CORPUSCULAR HEMOGLOBIN CONCENTRATION [2]: 39.44 G/DL | MEAN CORPUSCULAR VOLUME [2]: 60.66 fL | MONOCYTE [2]: 3% | NEUTROPHIL [2]: 13.8% | PLATELET COUNT [2]: 1190.6 x10E3/uL | ALANINE AMINOTRANSFERASE [2]: 43 u/L | ALBUMIN [2]: 3.73 G/DL | ALKALINE PHOSPHATASE [2]: 393 u/L | ASPARTATE AMINOTRANSFERASE [2]: 62.33 u/L | BLOOD UREA NITROGEN [2]: 16.33 mg/dL | CHLORIDE [2]: 101.67 MEQ/L | CHOLESTEROL [2]: 65.5 mg/dL | CREATINE PHOSPHOKINASE [2]: 130.67 u/L | CREATININE [2]: 0.58 mg/dL | GLUCOSE [2]: 180.67 mg/dL | PHOSPHORUS [2]: 11.28 mg/dL | POTASSIUM [2]: 7.05 MEQ/L | SODIUM [2]: 148.17 MEQ/L | TOTAL BILIRUBIN [2]: 0.72 mg/dL | TOTAL PROTEIN [2]: 6.83 G/DL | BASOPHIL [3]: 0% | EOSINOPHIL [3]: 0.33% | ERYTHROCYTE COUNT [3]: 5.96 x10E6/uL | HEMATOCRIT [3]: 36.4% | HEMOGLOBIN [3]: 14.47 G/DL | LEUKOCYTE COUNT [3]: 12.6 x10E3/uL | LYMPHOCYTE [3]: 87.33% | MEAN CORPUSCULAR HEMOGLOBIN [3]: 24.3 pg | MEAN CORPUSCULAR HEMOGLOBIN CONCENTRATION [3]: 39.77 G/DL | MEAN CORPUSCULAR VOLUME [3]: 61.13 fL | MONOCYTE [3]: 1.67% | NEUTROPHIL [3]: 10.67% | PLATELET COUNT [3]: 1303 x10E3/uL | ALANINE AMINOTRANSFERASE [3]: 36.33 u/L | ALBUMIN [3]: 3.6 G/DL | ALKALINE PHOSPHATASE [3]: 362.33 u/L | ASPARTATE AMINOTRANSFERASE [3]: 59 u/L | BLOOD UREA NITROGEN [3]: 11.33 mg/dL | CHLORIDE [3]: 102.67 MEQ/L | CHOLESTEROL [3]: 64.33 mg/dL | CREATINE PHOSPHOKINASE [3]: 137.67 u/L | CREATININE [3]: 0.53 mg/dL | GLUCOSE [3]: 188 mg/dL | PHOSPHORUS [3]: 12.8 mg/dL | POTASSIUM [3]: 7.17 MEQ/L | SODIUM [3]: 151.33 MEQ/L | TOTAL BILIRUBIN [3]: 0.37 mg/dL | BASOPHIL [4]: 0% | EOSINOPHIL [4]: 0% | ERYTHROCYTE COUNT [4]: 5.42 x10E6/uL | HEMATOCRIT [4]: 32.47% | HEMOGLOBIN [4]: 13.8 G/DL | LEUKOCYTE COUNT [4]: 15.5 x10E3/uL | LYMPHOCYTE [4]: 85.67% | MEAN CORPUSCULAR HEMOGLOBIN [4]: 25.47 pg | MEAN CORPUSCULAR HEMOGLOBIN CONCENTRATION [4]: 42.53 G/DL | MEAN CORPUSCULAR VOLUME [4]: 59.87 fL | MONOCYTE [4]: 2% | NEUTROPHIL [4]: 12.33% | PLATELET COUNT [4]: 1161.67 x10E3/uL | ALANINE AMINOTRANSFERASE [4]: 32 u/L | ALBUMIN [4]: 3.63 G/DL | ALKALINE PHOSPHATASE [4]: 344.33 u/L | ASPARTATE AMINOTRANSFERASE [4]: 54 u/L | BLOOD UREA NITROGEN [4]: 12.67 mg/dL | CHLORIDE [4]: 103 MEQ/L | CHOLESTEROL [4]: 67.33 mg/dL | CREATINE PHOSPHOKINASE [4]: 106 u/L | CREATININE [4]: 0.57 mg/dL | GLUCOSE [4]: 184.33 mg/dL | PHOSPHORUS [4]: 12.4 mg/dL | POTASSIUM [4]: 6.33 MEQ/L | SODIUM [4]: 150.33 MEQ/L | TOTAL BILIRUBIN [4]: 0.37 mg/dL | TOTAL PROTEIN [4]: 6.6 G/DL | BASOPHIL [5]: 0% | EOSINOPHIL [5]: 0.33% | ERYTHROCYTE COUNT [5]: 6.15 x10E6/uL | HEMATOCRIT [5]: 36.57% | HEMOGLOBIN [5]: 14.57 G/DL | LEUKOCYTE COUNT [5]: 11.57 x10E3/uL | LYMPHOCYTE [5]: 88% | MEAN CORPUSCULAR HEMOGLOBIN [5]: 23.7 pg | MEAN CORPUSCULAR HEMOGLOBIN CONCENTRATION [5]: 39.83 G/DL | MEAN CORPUSCULAR VOLUME [5]: 59.5 fL | MONOCYTE [5]: 2.67% | NEUTROPHIL [5]: 9% | PLATELET COUNT [5]: 1311.33 x10E3/uL | ALANINE AMINOTRANSFERASE [5]: 35.33 u/L | ALBUMIN [5]: 3.7 G/DL | ALKALINE PHOSPHATASE [5]: 375 u/L | ASPARTATE AMINOTRANSFERASE [5]: 63.67 u/L | BLOOD UREA NITROGEN [5]: 12 mg/dL | CHLORIDE [5]: 101.67 MEQ/L | CHOLESTEROL [5]: 59.33 mg/dL | CREATINE PHOSPHOKINASE [5]: 117 u/L | CREATININE [5]: 0.53 mg/dL | GLUCOSE [5]: 189 mg/dL | PHOSPHORUS [5]: 12.73 mg/dL | POTASSIUM [5]: 6.83 MEQ/L | SODIUM [5]: 150 MEQ/L | TOTAL BILIRUBIN [5]: 0.37 mg/dL | TOTAL PROTEIN [5]: 6.53 G/DL | BASOPHIL [6]: 0% | EOSINOPHIL [6]: 0.33% | ERYTHROCYTE COUNT [6]: 6.22 x10E6/uL | HEMATOCRIT [6]: 37.53% | HEMOGLOBIN [6]: 14.57 G/DL | LEUKOCYTE COUNT [6]: 11.73 x10E3/uL | LYMPHOCYTE [6]: 88.33% | MEAN CORPUSCULAR HEMOGLOBIN [6]: 23.43 pg | MEAN CORPUSCULAR HEMOGLOBIN CONCENTRATION [6]: 38.8 G/DL | MEAN CORPUSCULAR VOLUME [6]: 60.47 fL | MONOCYTE [6]: 2.33% | NEUTROPHIL [6]: 9% | PLATELET COUNT [6]: 1085 x10E3/uL | ALANINE AMINOTRANSFERASE [6]: 38 u/L | ALBUMIN [6]: 3.53 G/DL | ALKALINE PHOSPHATASE [6]: 295.33 u/L | ASPARTATE AMINOTRANSFERASE [6]: 62.67 u/L | BLOOD UREA NITROGEN [6]: 13.33 mg/dL | CHLORIDE [6]: 104.67 MEQ/L | CHOLESTEROL [6]: 62 mg/dL | CREATINE PHOSPHOKINASE [6]: 114.67 u/L | CREATININE [6]: 0.6 mg/dL | GLUCOSE [6]: 171 mg/dL | PHOSPHORUS [6]: 12.57 mg/dL | POTASSIUM [6]: 6.4 MEQ/L | SODIUM [6]: 152.33 MEQ/L | TOTAL BILIRUBIN [6]: 0.27 mg/dL | TOTAL PROTEIN [6]: 6.33 G/DL
